The test system of test [1] is Aβ42 formation in primary cortical neuronal cells (PCN). Kind of test: PCN assay (Aβ42 secreted by primary cortical neuronal cells, ELISA). It counts as cell-based. Particulars: mouse primary cortical neuronal cells; 16-20 hours incubation with test compound; read-out: pIC50 Aβ42 PCN assay (converted). On the procedure:
(§1) The level of activity of the compounds on Aβ formation was tested using the following methods:
Compounds were diluted in 100% DMSO and stored at 20° C. prior to use. Primary cortical neuronal cells (PCN) were isolated from 16-day mouse embryos and cultured in Ham's F12 media containing 10% Foetal bovine serum, 10 mM Hepes, 2 mM L-glutamine and 100 U/ml Penicillin-Streptomycin. 150000-250000 cells/well, in 200 μl cell media were seeded onto 96-well poly-D-Lysine coated plates. After incubation at 37° C., 5% CO2 for five days, the media was exchanged for fresh medium containing test compound diluted ×100, before further incubation for 16-20 hours at 37° C. and 5% CO2. After incubation with test compound the amount of Aβ42 peptides secreted to cell medium was analyzed using the solid phase sandwich Enzyme-Linked-Immuno-Sorbent Assay (ELISA)-kit from Invitrogen for detection of mouse βAmyloid 1-42. Potential cytotoxic effects of the compounds were assayed by measuring the ATP content (Via Light) from cell lysate.

For test [2], the system named is Aβ42 formation in HEK cell line stably expressing APP with the Swedish mutation (APPswe). Kind of test: HEK assay (Aβ42 secreted to cell medium, Meso Scale electrochemiluminescence). The note with it: Homo sapiens, HEK293; HEK cells expressing APPswe; 4-6 hours incubation with test compound; read-out: pIC50 Aβ42 HEK assay (converted). It counts as cell-based. On the procedure: as §1
Compounds were diluted in 100% DMSO and stored at 20° C. prior to use. Human Embryonic Kidney (HEK) cell line stably expressing APP with the Swedish mutation (APPswe) was cultured using Dulbecco's Modified Eagles medium (DMEM) supplied with […] glucose, Na-pyruvate and GlutaMAX, 10% Foetal bovine serum, 100 U/mL penicillin-streptomycin (PEST), 1× non-essential amino acids (NEAA), […] Hepes, 100 μg/mL Zeocine. Cells at about 80% confluence were washed with PBS, detached from culture flasks using 1×Trypsin/EDTA diluted in PBS, re-suspended in cell media and plated in 384-well poly-d-lysine coated cell culture plates at about 10000-15000 cells/well, in 25 μL cell media. Optionally, cryo-preserved cells (frozen and stored at −140° C. in 90% cell media and 10% DMSO) were thawed, washed and plated as above. Next the cells were incubated for 15-24 h at 37° C. and 5% CO2, after which cell medium was changed. Fresh medium containing test compound diluted ×200 from prepared compound plate was added to the cells before further incubation for 4-6 hours at 37° C. and 5% CO2. After incubation with test compound the amount of Aβ peptides, including Aβ42, Aβ40, Aβ39, Aβ38 and Aβ37, secreted to cell medium was analyzed using the electrochemiluminescence assay technology from Meso Scale Discovery Technology, in combination with specific antibodies raised against the different Aβ peptides. Potential cytotoxic effects of the compounds were assayed by measuring the ATP content (ViaLight) from cell lysate.

For `COc1cc(Nc2nc(N(C)Cc3ccccc3)n(CC(C)(C)O)n2)ccc1-n1cnc(C)c1` [Example 7, 1-{5-[Benzyl(methyl)amino]-3-{[3-methoxy-4-(4-methyl-1H-imidazol-1-yl)phenyl]amino}-1H-1,2,4-triazol-1-yl}-2-methylpropan-2-ol], the IC50 in test [1] was 20 nM; in test [2], 15.8 nM.

Take `COc1cc(Nc2nc(NCC3CC3)n(CC(C)C)n2)ccc1-n1cnc(C)c1` [Example 3, 5-N-(Cyclopropylmethyl)-3-N-[3-methoxy-4-(4-methyl-1H-imidazol-1-yl)phenyl]-1-(2-methylpropyl)-1H-1,2,4-triazole-3,5-diamine]: in test [2], the IC50 is 63.1 nM.

For `COc1cc(Nc2nc(N(C)CC3CC3)n(CC(C)(C)O)n2)ccc1-n1cnc(C)c1` [Example 5, 1-{5-[(Cyclopropylmethyl)(methyl)amino]-3-{[3-methoxy-4-(4-methyl-1H-imidazol-1-yl)-phenyl]amino}-1H-1,2,4-triazol-1-yl}-2-methylpropan-2-ol], the IC50 in test [2] was 79.4 nM.

Take `COc1cc(Nc2nc(N(C)CC(C)(C)O)n(Cc3ccccc3)n2)ccc1-n1cnc(C)c1` [Example 4, 1-[(1-Benzyl-3-{[3-methoxy-4-(4-methyl-1H-imidazol-1-yl)phenyl]amino}-1H-1,2,4-triazol-5-yl)(methyl)amino]-2-methylpropan-2-ol]: the IC50 in test [2] was 100 nM.

As for `COc1cc(Nc2nc(NCC3CC3)n(C)n2)ccc1-n1cnc(C)c1` [Example 1, N^5-(Cyclopropylmethyl)-N^3-[3-methoxy-4-(4-methyl-1H-imidazol-1-yl)phenyl]-1-methyl-1H-1,2,4-triazole-3,5-diamine], the results for the IC50 in test [1] and in test [2] were 158 nM and 79.4 nM, respectively.

In the case of `COc1cc(Nc2nc(N(CC3CC3)CC3CC3)n(C)n2)ccc1-n1cnc(C)c1` [Example 2, 5-N,5-N-Bis(cyclopropylmethyl)-3-N-[3-methoxy-4-(4-methyl-1H-imidazol-1-yl)phenyl]-1-methyl-1H-1,2,4-triazole-3,5-diamine], the IC50 in test [2] was 63.1 nM.

Consider `COc1cc(Nc2nc(NCc3ccccc3)n(CC(C)(C)O)n2)ccc1-n1cnc(C)c1` [Example 6, 1-[5-(Benzylamino)-3-{[3-methoxy-4-(4-methyl-1H-imidazol-1-yl)phenyl]amino}1H-1,2,4-triazol-1-yl]-2-methylpropan-2-ol], for which the IC50 in test [1] is 15.8 nM; in test [2], 20 nM.

The values above are taken from patent US9718805B2, “Triazole compounds and their use as gamma secretase modulators” (Acturum Life Science AB, priority 2013, dated 2017).
